Here are results for eight compounds from patent publication US8415359B2, “Phenylpyrrole derivative” (Daiichi Sankyo Company, Limited, priority 2008, dated 2013).

Structures are written as SMILES.

The test has as its target T1, human pancreatic GK (human glucokinase variant 1, GST-fused protein) (Homo sapiens, UniProt P35557).
T1 construct: made in house; host or cells: Escherichia coli (such as BL21 or JM109)
T1 sequence (P35557 1-465): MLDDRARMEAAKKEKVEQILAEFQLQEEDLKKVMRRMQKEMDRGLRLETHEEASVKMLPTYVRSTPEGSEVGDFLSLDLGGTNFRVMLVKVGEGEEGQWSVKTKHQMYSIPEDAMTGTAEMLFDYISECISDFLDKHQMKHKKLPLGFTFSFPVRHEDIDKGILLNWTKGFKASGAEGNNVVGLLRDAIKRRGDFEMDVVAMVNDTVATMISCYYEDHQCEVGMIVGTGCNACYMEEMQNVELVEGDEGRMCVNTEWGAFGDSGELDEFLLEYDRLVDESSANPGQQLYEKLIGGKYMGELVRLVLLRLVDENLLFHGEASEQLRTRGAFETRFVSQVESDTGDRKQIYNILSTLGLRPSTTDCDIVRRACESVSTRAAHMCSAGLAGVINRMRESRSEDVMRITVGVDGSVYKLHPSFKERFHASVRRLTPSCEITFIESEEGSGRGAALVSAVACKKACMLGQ
In words: GK activity test (GK activation rate). Type of test: biochemical. To be noted: test compound 1 μM; glucose 5 mM; 30 min at room temperature; absorbance at 340 nm with test compound / without test compound. On the procedure: cDNA encoding human pancreatic GK polypeptide (GenBank Accession No. NM_000162, human glucokinase variant 1) was cloned from a human cDNA library by polymerase chain reaction (PCR), and introduced into a glutathione S-transferase (GST)-fused protein expression vector (GEX4T, GE Healthcare Bioscience). The vector was introduced into Escherichia coli (such as BL21 or JM109, Invitrogen), and the transformed E. coli was cultured overnight at 37° C. followed by recovery of the cells. After freezing and thawing the recovered cells, the cells were suspended in phosphate buffer containing Triton-X at a final concentration of 1% followed by disrupting the cells with an ultrasonic homogenizer. The supernatant obtained by low-speed centrifugation treatment of the homogenate (10,000×g, 30 minutes) was further subjected to high-speed centrifugation (100,000×g, 10 minutes) followed by recovering the supernatant and purifying the fused protein using a GST fused protein purification system (Bulk GST Purification Module, GE Healthcare Bioscience). The GK fused protein was divided into smaller aliquots and stored at −80° C.
GK activity was measured using the GK purified in (1) above. More specifically, an enzyme solution was prepared by adding the purified GK of (1) above and glucose-6-phosphate dehydrogenase (Sigma) to solution 1 of a glucose assay kit (D-Glucose UV Method, Roche Diagnostics). The enzyme solution, a test compound diluent and glucose (final concentration: 5 mM) were mixed in a 96-well ELISA plate, and allowed to react for 30 minutes at room temperature. Following completion of the reaction, absorbance at a wavelength of 340 nm was measured using SpectraMax Plus (Molecular Probe). Furthermore, unreacted (when glucose was not added) absorbance was used for the background.
GK activation rates were indicated with values represented by the following numerical formula: (absorbance after reacting for 30 minutes when test compound added)/(absorbance after reacting for 30 minutes when test compound not added).
Consider `COC[C@H](C)Oc1cc(Oc2ccc(C(=O)N3CCCC3)cc2F)cc(-c2ccc(-c3nccs3)[nH]2)c1` [Example 47, 2-(5-{3-[2-Fluoro-4-(pyrrolidin-1-ylcarbonyl)phenoxy]-5-[(1S)-2-methoxy-1-methylethoxy]phenyl}-1H-pyrrol-2-yl)-1,3-thiazole], for which the “GK Activation Rate” value was determined as 2.0.
The same measure for `C[C@H]1CN=C(c2ccc(-c3cc(Oc4ncc(C(=O)N5CCC5)cc4Cl)cc(O[C@@H](C)CO)c3)[nH]2)O1` [Example 75, (2S)-2-(3-{[5-(Azetidin-1-ylcarbonyl)-3-chloropyridin-2-yl]oxy}-5-{5-[(5S)-5-methyl-4,5-dihydro-1,3-oxazol-2-yl]-1H-pyrrol-2-yl}phenoxy)propan-1-ol]: 1.8; for `C[C@H]1CN=C(c2ccc(-c3cc(Oc4ccc(S(C)(=O)=O)nc4)cc(O[C@@H](C)CO)c3)[nH]2)O1` [Example 77, (2S)-2-(3-{5-[(5S)-5-Methyl-4,5-dihydro-1,3-oxazol-2-yl]-1H-pyrrol-2-yl}-5-{[6-(methylsulfonyl)pyridin-3-yl]oxy}phenoxy)propan-1-ol]: 2.6.
For `COC[C@H](C)Oc1cc(Oc2ncc(C(=O)N3CCC3)cc2Cl)cc(-c2ccc(-c3nccs3)[nH]2)c1` [Example 60, 5-(Azetidin-1-ylcarbonyl)-3-chloro-2-{3-[(1S)-2-methoxy-1-methylethoxy]-5-[5-(1,3-thiazol-2-yl)-1,1-pyrrol-2-yl]phenoxy}pyridine], the “GK Activation Rate” value is 2.0.
For `C[C@H]1CN=C(c2ccc(-c3cc(Oc4cnc(S(C)(=O)=O)cn4)cc(O[C@@H](C)CO)c3)[nH]2)O1` [Example 100, (2S)-2-(3-{5-[(5S)-5-Methyl-4,5-dihydro-1,3-oxazol-2-yl]-1H-pyrrol-2-yl}-5-{[5-(methylsulfonyl)pyrazin-2-yl]oxy}phenoxy)propan-1-ol], the “GK Activation Rate” value was 1.9.
To `COC[C@H](C)Oc1cc(Oc2ncc(C(=O)N3CCC3)cc2Cl)cc(-c2ccc(C3=NCCO3)[nH]2)c1` [Example 73, 5-(Azetidin-1-ylcarbonyl)-3-chloro-2-{3-[5-(4,5-dihydro-1,3-oxazol-2-yl)-1,4-pyrrol-2-yl]-5-[(1S)-2-methoxy-1-methylethoxy]phenoxyl}pyridine] belongs 2.0; to `COC[C@H](C)Oc1cc(Oc2cnc(C(=O)N3CCN(C)CC3)cn2)cc(-c2ccc(-c3nccs3)[nH]2)c1` [Example 64, 2-{3-[(1S)-2-Methoxy-1-methylethoxy]-5-[5-(1,3-thiazol-2-yl)-1H-pyrrol-2-yl]phenoxy}-5-[(4-methylpiperazin-1-yl)carbonyl]pyrazine], 1.9.
With `CNS(=O)(=O)c1ccc(Oc2cc(O[C@@H](C)CO)cc(-c3ccc(C4=NC[C@H](C)O4)[nH]3)c2)cn1` [Example 122, 5-(3-[(1S)-2-Hydroxy-1-methylethoxy]-5-{5-[(5S)-5-methyl-4,5-dihydro-1,3-oxazol-2-yl]-1H-pyrrol-2-yl}phenoxy)-N-methylpyridine-2-sulfonamide], the “GK Activation Rate” value is listed as 2.5.
